What was measured:
Type in all cases: in vivo
[1] = system: short-spiked canarygrass (Phalaris brachystachys, PHABR); assay: Field trial, percent visual weed control of PHABR; conditions: 28 to 56 days after application
Protocol: (§1) These trials were conducted under field conditions in France, Poland and Syria. Trial sites were located in commercially grown crops wheat, barley and corn. The crops were grown using normal cultural practices for fertilization, seeding, and maintenance to ensure good growth of the crop and the weeds. The trials were conducted using typical small plot herbicide research methodology. Trial plots were between 1 to 2.5 meters (m) wide by 6 to 42 m long. All treatments were applied using a randomized complete block trial design with 2 to 4 replications per treatment. The trial sites had naturally occurring populations of weeds. The weed spectrum included, but was not limited to, wild oat (Avena fatua, AVEFA); Shepherd's purse (Capsella bursa-pastoris, CAPBP); common lambsquarter (Chenopodium album, CHEAL); barnyardgrass (Echinochloa crus-galli, ECHCG); ryegrass (Lolium spp., LOLSS); short-spiked canarygrass (Phalaris brachystachys, PHABR); awned canarygrass (Phalaris paradoxa, PHAPA); narrow-leaved plantain (Plantago lanceolata, PLALA); annual […] (Poa annua, POAAN); and wild buckwheat (Polygonum convolvulus, POLCO).
(§2) Treatments consisted of tank mixes of penoxsulam and pyroxsulam or pyroxsulam+cloquintocet (mexyl) applied in water. Where used, Actirob B adjuvant was applied at use rate of 0.2 to 1 liter per hectare (L/ha) with pyroxsulam containing treatments and in tankmixes. […]

[2] = system: narrow-leaved plantain (Plantago lanceolata, PLALA); assay: Field trial, percent visual weed control of PLALA; conditions: 14 to 61 days after application
Protocol: as §1, §2

[3] = system: ryegrass (Lolium spp., LOLSS); assay: Field trial, percent visual weed control of LOLSS; conditions: 14 to 61 days after application
Protocol: as §1, §2

[4] = system: annual blackgrass (Poa annua, POANN); assay: Field trial, percent visual weed control of POANN; conditions: 14 to 61 days after application
Protocol: as §1, §2

[5] = system: common lambsquarter (Chenopodium album, CHEAL); assay: Field trial, percent visual weed control of CHEAL; conditions: 39-51 days after application
Protocol: as §1, §2

[6] = system: barnyardgrass (Echinochloa crus-galli, ECHCG); assay: Field trial, percent visual weed control of ECHCG; conditions: 39-51 days after application
Protocol: as §1, §2

[7] = system: wild buckwheat (Polygonum convolvulus, POLCO); assay: Field trial, percent visual weed control of POLCO; conditions: 39-51 days after application
Protocol: as §1, §2

[8] = system: awned canarygrass (Phalaris paradoxa, PHAPA); assay: Field trial, percent visual weed control of PHAPA; conditions: 28 to 56 days after application
Protocol: as §1, §2

[9] = system: wild oat (Avena fatua, AVEFA); assay: Field trial, percent visual weed control of AVEFA; conditions: 28 to 56 days after application
Protocol: as §1, §2

[10] = system: Shepherd's purse (Capsella bursa-pastoris, CAPBP); assay: Field trial, percent visual weed control of CAPBP; conditions: 39-51 days after application
Protocol: as §1, §2

| Structure (SMILES) | Control of PHABR, Obs (Observed Response) ([1]; penoxsulam 20 g ai/ha alone) [%] | Control of PLALA, Obs (Observed Response) ([2]; penoxsulam 20 g ai/ha alone) [%] | Control of LOLSS, Obs (Observed Response) ([3]; penoxsulam 20 g ai/ha alone) [%] | Control of POANN, Obs (Observed Response) ([4]; penoxsulam 20 g ai/ha alone) [%] | Control of CHEAL, Obs (Observed Response) ([5]; penoxsulam 5 g ai/ha alone) [%] | Control of ECHCG, Obs (Observed Response) ([6]; penoxsulam 5 g ai/ha alone) [%] | Control of POLCO, Obs (Observed Response) ([7]; penoxsulam 5 g ai/ha alone) [%] | Control of PHAPA, Obs (Observed Response) ([8]; penoxsulam 20 g ai/ha alone) [%] | Control of AVEFA, Obs (Observed Response) ([9]; penoxsulam 20 g ai/ha alone) [%] | Control of CAPBP, Obs (Observed Response) ([10]; penoxsulam 5 g ai/ha alone) [%] | Control of PHABR, Obs (Observed Response) ([1]; pyroxsulam 18 g ai/ha alone) [%] | Control of PLALA, Obs (Observed Response) ([2]; pyroxsulam 20 g ai/ha alone) [%] | Control of LOLSS, Obs (Observed Response) ([3]; pyroxsulam 20 g ai/ha alone) [%] | Control of POANN, Obs (Observed Response) ([4]; pyroxsulam 20 g ai/ha alone) [%] | Control of CHEAL, Obs (Observed Response) ([5]; pyroxsulam 4 g ai/ha alone) [%] | Control of ECHCG, Obs (Observed Response) ([6]; pyroxsulam 4 g ai/ha alone) [%] | Control of POLCO, Obs (Observed Response) ([7]; pyroxsulam 4 g ai/ha alone) [%] | Control of PHAPA, Obs (Observed Response) ([8]; pyroxsulam 18 g ai/ha alone) [%] | Control of AVEFA, Obs (Observed Response) ([9]; pyroxsulam 18 g ai/ha alone) [%] | Control of CAPBP, Obs (Observed Response) ([10]; pyroxsulam 4 g ai/ha alone) [%] |
| --- | --- | --- | --- | --- | --- | --- | --- | --- | --- | --- | --- | --- | --- | --- | --- | --- | --- | --- | --- | --- |
| COc1cnc(OC)n2nc(NS(=O)(=O)c3c(OCC(F)F)cccc3C(F)(F)F)nc12 [Penoxsulam, 2-(2,2-difluoroethoxy)-N-(5,8-dimethoxy-[1,2,4]triazolol1,5-clpyrimidin-2-yl)-6-(trifluoromethyl)benzenesulfonamide] | 0 | 13 | 20 | 17 | 10 | 0 | 50 | 0 | 0 | 20 | – | – | – | – | – | – | – | – | – | – |
| COc1cc(OC)n2nc(NS(=O)(=O)c3c(C(F)(F)F)ccnc3OC)nc2n1 [Pyroxsulam, N-(5,7-dimethoxy[1,2,4]triazolol1,5-alpyrimidin-2-yl)-2-methoxy-4-(trifluoromethyl)-3-pyridinesulfonamide] | – | – | – | – | – | – | – | – | – | – | 38 | 7 | 0 | 0 | 65 | 65 | 35 | 80 | 65 | 70 |
